From US20200170975A1 (Strongbridge Dublin Limited, priority 2018, published 2020)
Where two headings read alike, the source gives them in different places.

Assays:
[1] = molecular target: T1, OAT4 (Homo sapiens, UniProt Q9NSA0); assay: OAT4 inhibition: accumulation of [3H]-estrone-3-sulfate in S2 cells; format: in vitro ADME
T1 construct: expressed in transfected cells; host or cells: S2 cells
T1 sequence (Q9NSA0 1-550): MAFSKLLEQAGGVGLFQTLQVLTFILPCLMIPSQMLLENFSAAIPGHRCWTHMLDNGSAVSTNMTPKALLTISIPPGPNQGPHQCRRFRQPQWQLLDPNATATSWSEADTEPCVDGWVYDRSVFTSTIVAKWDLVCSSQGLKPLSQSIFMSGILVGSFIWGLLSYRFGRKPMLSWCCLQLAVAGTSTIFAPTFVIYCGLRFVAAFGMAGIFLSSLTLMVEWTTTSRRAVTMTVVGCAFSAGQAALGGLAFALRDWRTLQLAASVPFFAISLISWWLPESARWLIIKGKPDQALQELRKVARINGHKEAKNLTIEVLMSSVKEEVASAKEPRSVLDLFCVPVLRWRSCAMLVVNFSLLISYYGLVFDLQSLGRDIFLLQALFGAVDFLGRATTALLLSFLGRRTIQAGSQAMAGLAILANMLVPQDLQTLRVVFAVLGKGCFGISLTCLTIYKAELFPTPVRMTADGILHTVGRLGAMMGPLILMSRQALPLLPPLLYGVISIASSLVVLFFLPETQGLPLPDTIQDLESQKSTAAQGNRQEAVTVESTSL
Experimental: (§1) Schneider 2 (S2) cells are a commonly used Drosophila melanogaster cell lines from a primary culture of late stage (20-24 hours old) embryos from a macrophage-like lineage. S2 cells are used to express heterologous proteins, to produce proteins on a large scale, and to easily and transiently transfect with several plasmids at once to study protein interactions.
(§2) [^14C]-Metformin (1 mM) was provided as a solid and was prepared in Hank's balanced salt solution (HBSS).

[2] = molecular target: T2, BCRP (Homo sapiens, UniProt Q9UNQ0); assay: BCRP inhibition: bidirectional transport of prazosin across MDCKII-BCRP and control MDCKII cells; conditions: for Recovery (%) A:B / Recovery (%) B:A / % control: 120 min
T2 sequence (Q9UNQ0 1-655): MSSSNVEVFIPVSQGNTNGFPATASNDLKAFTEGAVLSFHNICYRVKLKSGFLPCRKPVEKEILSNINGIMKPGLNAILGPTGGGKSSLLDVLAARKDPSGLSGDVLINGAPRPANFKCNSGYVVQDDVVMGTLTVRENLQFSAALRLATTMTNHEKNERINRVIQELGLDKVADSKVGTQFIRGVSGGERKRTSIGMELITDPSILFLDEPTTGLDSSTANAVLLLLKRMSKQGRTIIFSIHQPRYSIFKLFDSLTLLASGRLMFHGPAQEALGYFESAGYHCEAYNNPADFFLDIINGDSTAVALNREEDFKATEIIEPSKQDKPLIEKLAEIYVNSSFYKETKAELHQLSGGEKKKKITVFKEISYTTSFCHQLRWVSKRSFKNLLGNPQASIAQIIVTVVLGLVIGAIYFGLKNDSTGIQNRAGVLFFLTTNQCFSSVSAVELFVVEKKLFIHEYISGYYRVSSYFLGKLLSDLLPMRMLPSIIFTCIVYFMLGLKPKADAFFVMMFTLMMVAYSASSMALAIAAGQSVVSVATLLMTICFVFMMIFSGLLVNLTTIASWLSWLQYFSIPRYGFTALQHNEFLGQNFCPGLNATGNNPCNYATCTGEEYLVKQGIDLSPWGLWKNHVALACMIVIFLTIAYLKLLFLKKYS
Excerpt: MDCKII P-gp, MDCKII BCRP and control MDCKII cells were purchased from the Netherlands Cancer Institute.

[3] = molecular target: P-gp (Homo sapiens, UniProt P08183); conditions: 120 min
[4] = molecular target: T3, OCT1 (Homo sapiens, UniProt O15245)
T3 sequence (O15245 1-554): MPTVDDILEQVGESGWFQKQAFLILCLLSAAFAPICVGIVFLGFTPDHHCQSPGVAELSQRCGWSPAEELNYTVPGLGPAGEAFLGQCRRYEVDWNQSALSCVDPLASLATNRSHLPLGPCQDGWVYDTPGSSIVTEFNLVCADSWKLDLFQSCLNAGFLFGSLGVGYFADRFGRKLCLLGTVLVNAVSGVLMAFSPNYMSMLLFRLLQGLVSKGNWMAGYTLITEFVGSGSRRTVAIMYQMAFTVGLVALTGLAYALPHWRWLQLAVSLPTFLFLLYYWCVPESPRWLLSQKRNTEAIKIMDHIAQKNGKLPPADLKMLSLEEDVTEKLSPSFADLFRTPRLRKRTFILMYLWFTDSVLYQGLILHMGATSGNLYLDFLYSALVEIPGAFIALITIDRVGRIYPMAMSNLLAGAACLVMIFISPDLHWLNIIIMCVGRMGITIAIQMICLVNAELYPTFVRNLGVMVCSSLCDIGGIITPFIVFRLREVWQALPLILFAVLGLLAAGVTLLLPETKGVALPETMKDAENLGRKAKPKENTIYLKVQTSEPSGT

[5] = molecular target: T4, OAT2 (Homo sapiens, UniProt Q9Y694); assay: OAT2 inhibition: accumulation of [3H]-PGE2 in S2 cells; format: in vitro ADME
T4 construct: expressed in transfected cells; host or cells: S2 cells
T4 sequence (Q9Y694 1-548): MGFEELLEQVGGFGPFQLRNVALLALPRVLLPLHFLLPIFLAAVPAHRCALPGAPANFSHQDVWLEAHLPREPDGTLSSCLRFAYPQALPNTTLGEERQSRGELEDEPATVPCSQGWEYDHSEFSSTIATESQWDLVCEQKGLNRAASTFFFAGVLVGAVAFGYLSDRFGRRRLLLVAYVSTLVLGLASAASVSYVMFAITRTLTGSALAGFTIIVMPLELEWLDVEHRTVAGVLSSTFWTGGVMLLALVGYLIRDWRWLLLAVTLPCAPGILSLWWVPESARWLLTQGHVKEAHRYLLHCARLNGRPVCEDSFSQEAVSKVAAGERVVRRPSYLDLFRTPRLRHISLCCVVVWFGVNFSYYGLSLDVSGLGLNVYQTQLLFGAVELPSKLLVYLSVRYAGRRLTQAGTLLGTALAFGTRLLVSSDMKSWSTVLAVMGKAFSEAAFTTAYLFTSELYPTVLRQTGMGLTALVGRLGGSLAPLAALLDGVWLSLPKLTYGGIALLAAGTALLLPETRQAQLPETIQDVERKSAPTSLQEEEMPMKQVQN
Experimental: as §1, §2

[6] = cited from earlier work

Sequence of P-gp (P08183 whole entry): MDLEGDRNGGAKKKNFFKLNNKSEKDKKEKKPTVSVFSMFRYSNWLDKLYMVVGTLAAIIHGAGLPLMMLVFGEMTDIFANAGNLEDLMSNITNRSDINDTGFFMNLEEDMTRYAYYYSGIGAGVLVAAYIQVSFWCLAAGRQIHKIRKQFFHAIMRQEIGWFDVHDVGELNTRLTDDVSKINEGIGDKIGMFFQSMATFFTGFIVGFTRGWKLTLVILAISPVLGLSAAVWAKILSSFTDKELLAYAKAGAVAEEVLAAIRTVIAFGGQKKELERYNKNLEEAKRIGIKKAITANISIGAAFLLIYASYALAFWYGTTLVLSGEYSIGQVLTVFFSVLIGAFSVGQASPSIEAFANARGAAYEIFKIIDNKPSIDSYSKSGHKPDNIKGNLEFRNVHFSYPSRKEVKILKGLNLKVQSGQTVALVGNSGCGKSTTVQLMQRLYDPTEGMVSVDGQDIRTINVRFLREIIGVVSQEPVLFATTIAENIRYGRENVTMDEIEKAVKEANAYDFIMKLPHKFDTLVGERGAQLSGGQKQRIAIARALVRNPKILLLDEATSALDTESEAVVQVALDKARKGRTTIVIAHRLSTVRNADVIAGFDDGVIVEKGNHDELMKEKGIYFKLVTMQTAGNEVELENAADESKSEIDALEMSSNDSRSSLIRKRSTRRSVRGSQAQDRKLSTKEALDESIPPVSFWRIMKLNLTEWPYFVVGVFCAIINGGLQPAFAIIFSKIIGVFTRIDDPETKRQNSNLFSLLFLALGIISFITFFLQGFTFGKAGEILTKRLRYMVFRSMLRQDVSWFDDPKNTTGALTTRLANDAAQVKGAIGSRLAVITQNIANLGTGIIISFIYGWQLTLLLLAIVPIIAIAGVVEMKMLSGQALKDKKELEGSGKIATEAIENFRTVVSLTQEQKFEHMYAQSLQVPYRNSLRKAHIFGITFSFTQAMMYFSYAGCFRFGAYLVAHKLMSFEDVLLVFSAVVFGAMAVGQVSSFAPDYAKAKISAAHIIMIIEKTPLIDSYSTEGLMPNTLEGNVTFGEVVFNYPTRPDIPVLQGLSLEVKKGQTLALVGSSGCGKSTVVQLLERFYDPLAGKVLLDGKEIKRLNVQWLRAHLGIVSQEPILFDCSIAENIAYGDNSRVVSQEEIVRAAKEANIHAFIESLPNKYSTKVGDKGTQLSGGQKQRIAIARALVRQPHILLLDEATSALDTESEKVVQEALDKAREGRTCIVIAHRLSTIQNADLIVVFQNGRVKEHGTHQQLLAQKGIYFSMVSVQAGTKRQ

For `NS(=O)(=O)c1cc(Cl)c(Cl)c(S(N)(=O)=O)c1` [Dichlorphenamide, 4,5-dichloro-1,3-benzenedisulfonamide], the IC50 [1] was over 1 mM, the IC50 [2] was over 1 mM and the “Recovery (%) A:B” value ([2]; dog, MDCK, 1000 μM) was 84.7%. For the same compound, the “Recovery (%) B:A” value ([2]; dog, MDCK, 1000 μM) was 77.0%, the “% control” value ([2]; human, 3 μM) was 124% and the “% control” value ([2]; human, 10 μM) was 91.4%. For the same compound, the “% control” value ([2]; human, 30 μM) was 83.3%, the “% control” value ([2]; human, 100 μM) was 91.2% and the “% control” value ([2]; human, 300 μM) was 91.9%. The “% control” value ([2]; human, 1000 μM) was 60.0%, the “Recovery (%) A:B” value ([2]; human, 1000 μM) was 93.0% and the “Recovery (%) B:A” value ([2]; human, 1000 μM) was 83.7%. The “% control” value ([3]; 3 μM) was 74.0%, the “% control” value ([3]; 10 μM) was 98.2% and the “% control” value ([3]; 30 μM) was 89.8%. The “% control” value ([3]; 100 μM) was 79.2%, the “% control” value ([3]; 300 μM) was 275% and the “% control” value ([3]; 1000 μM) was 127%. The IC50 [4] was over 1 mM, the IC50 [5] was over 1 mM and the “solubility in dilute solutions of sodium carbonate and sodium hydroxide” value ([6]; dilute solutions of sodium carbonate and sodium hydroxide) was “soluble”. For the same compound, the “stability of dilute alkaline solutions” value ([6]; room temperature) was “stable” and the solubility in water ([6]; water) was “very slightly soluble”.
